PubChem BioAssay AID488890 (Southern Research Specialized Biocontainment Screening …, 2010)
pIC50: −log10 of the molar value. Records with an inconclusive call do not appear. Calls of active or inactive are those of the source. No rule for the calls is given here.

What follows are molecules tested on Mycobacterium tuberculosis non-replicating, growth inhibition (assay: growth inhibition of non-replicating M. tuberculosis (AID 488890)).

| Structure (SMILES) | IC50 | pIC50 |
| --- | --- | --- |
| CCOC(=O)c1ccc(N=C2SC(C(=O)Nc3ccc(C(=O)O)cc3)CC(=O)N2Cc2cccs2)cc1 (stereo unspecified) | 35.1 µM (inactive) |  |
| O=C(Nc1ccc(Cl)cc1Cl)c1cccc(N2C(=O)C=CC2=O)c1 | 11.6 µM (inactive) |  |
| O=C(COc1cccc2ccccc12)Nc1nc2ccccc2[nH]1 |  | 5.27 |
| Cc1ccc2nc3c(c(N)c2c1)CCN3c1ccccc1 | 28.4 µM (inactive) |  |
| O=C(COc1ccc(Cl)cc1)NNC(=O)c1ccccn1 | 12.1 µM (inactive) |  |
| COC(=O)c1ccc(CSc2nnc(-c3ccncc3)o2)o1 |  | 5.14 |
| O=C(CCS(=O)(=O)c1ccccc1)Nc1nnc(-c2ccco2)o1 |  | 5.11 |
| O=C1c2ccccc2CC1Sc1nnc(-c2ccncc2)o1 (stereo unspecified) | 23.9 µM (inactive) |  |
| CCOc1ccc(NC(=O)CCc2ccc(C)o2)cc1 |  | 5.11 |
| Cc1cccc(Nc2nc(-c3ccccn3)cs2)n1 |  | 6.02 |
| Cc1nc(C)c(/C(O)=C/c2nc3ccccc3oc2=O)s1 |  | 5.97 |
| COc1cc(OC)cc(C(=O)NNC(=O)c2ccccn2)c1 | 11.6 µM (inactive) |  |
| COc1ccc(-n2c3c(cc(C(=O)NNc4ccccc4)c2=O)C(=O)CC(C)(C)C3)cc1 | 17.8 µM (inactive) |  |
| O=c1c2ccccc2sn1-c1ccccc1 |  | 5.17 |
| O=C(Nc1nc(-c2cc(F)ccc2F)cs1)c1ccccn1 |  | 5.64 |
| CC(C)CN1C(=O)/C(=C(/C#N)C(=O)NC2CCCCC2)c2ccccc21 | 25.9 µM (inactive) |  |
| O=C(OCC(=O)c1c[nH]c2ccccc12)c1ccc([N+](=O)[O-])s1 |  | 6.10 |
| O=C(NNc1ccc([N+](=O)[O-])cc1)C1CC1c1ccccc1 (stereo unspecified) |  | 5.05 |
| CCN1/C(=C(\O)c2ccccc2)C(=O)c2ccccc2S1(=O)=O | 15.8 µM (inactive) |  |

| Structure (SMILES) | IC50 | pIC50 |
| --- | --- | --- |
| O=C(Cc1ccc(F)cc1)Nc1ccc(Cl)cn1 | 14.2 µM (inactive) |  |
| COc1cc(/C=N/Nc2ccc(Cl)c(C(=O)O)c2)ccc1OC(=O)c1ccco1 | 11.9 µM (inactive) |  |
| CC(=O)CCC1CC(c2ccc(Cl)cc2)=NO1 (stereo unspecified) |  | 5.62 |
| COc1ccc(/C=N/Nc2cc(C)nc(-n3nc(C)cc3C)n2)c(OC)c1 |  | 5.48 |
| CCC(C)n1c(=S)[nH]c2ccccc2c1=O (stereo unspecified) | 14.8 µM (inactive) |  |
| C/C(=N/NC(=O)c1ccco1)c1ccc(Br)s1 | 23 µM (inactive) |  |
| COc1cccc(COC(=O)c2sc3nc4n(c(=O)c3c2C)CCC4)c1OC |  | 5.61 |
| CSc1nn(-c2ccc(C(=O)OCC(=O)NC(=O)NC(C)C)cc2)c(=S)s1 | 16 µM (inactive) |  |
| C/C(=C\C(=O)c1ccncc1)Nc1ccccc1O |  | 5.38 |
| Cc1ccc2c(c1)c1c(n2CC(O)CNC2CCCCC2)CCCC1 (stereo unspecified) | 16.7 µM (inactive) |  |
| CC1Cc2cc(/C=C3/SC(=S)NC3=O)ccc2O1 (stereo unspecified) |  | 5.52 |
| CCOC(=O)COc1ccc(C(=O)Nc2cccc(Cl)c2C)cc1 |  | 6.64 |
| CC(=O)N1N=C(c2ccccc2)OC1c1ccc([N+](=O)[O-])s1 (stereo unspecified) | 13.4 µM (inactive) |  |
| O=C(NC(=S)NCCc1ccccc1)c1ccccc1 | 10.4 µM (inactive) |  |
| Cc1cc([N+](=O)[O-])ccc1NC(=O)Nc1ccc(F)cc1F | 21.9 µM (inactive) |  |
| COC(=O)CCCC(=O)N1CCCC(C(=O)c2ccc(-c3ccccc3)cc2)C1 (stereo unspecified) | 35.8 µM (inactive) |  |
| O=[N+]([O-])c1cc2oc3c(c2c(C=NCc2ccccc2)c1O)CCCC3 |  | 5.54 |
| O=[N+]([O-])c1cccnc1N/N=C/c1ccccc1O |  | 5.54 |
| NC(=O)CN1CCN(C2CC(=O)N(CCc3ccccc3)C2=O)CC1 (stereo unspecified) | 19.9 µM (inactive) |  |

| Structure (SMILES) | IC50 | pIC50 |
| --- | --- | --- |
| Cc1cc(C)c(OCC(=O)Nc2nnc(-c3ccco3)o2)c(C)c1 | 45.3 µM (inactive) |  |
| CCc1ccc(NC(=O)C(=O)NNC(=O)COc2cccc(OC)c2)cc1 |  | 5.60 |
| COc1ccc(C(=O)COC(=O)COc2ccc(C)c(C)c2)cc1 | 20.7 µM (inactive) |  |
| O=C1CC(=O)CC(c2ccccc2)C1 | 29.8 µM (inactive) |  |
| CCN1CCN(c2ccc(S(=O)(=O)N3CCCCC3)cc2NC(=O)c2ccc([N+](=O)[O-])s2)CC1 |  | 5.13 |
| CCCn1c(NC(=O)c2ccccc2)nc2ccccc21 |  | 5.06 |
| CN(C)CCCNc1cc(C(C)(C)C)nc2c(-c3ccc(Cl)cc3)cnn12 |  | 5.28 |
| CC(=O)OCCN(C)c1cc(SC(C)C)c2nonc2c1[N+](=O)[O-] | 13.7 µM (inactive) |  |
| O=C(NNC(=S)NC(=O)c1cn(-c2ccccc2)nc1-c1ccccc1)c1ccncc1 | 21.9 µM (inactive) |  |
| CSc1ccc(C(=O)C2CCCN(Cc3cc4ccccc4[nH]3)C2)cc1 (stereo unspecified) | 11.1 µM (inactive) |  |
| O=C(Oc1cccc2cccnc12)c1cccc([N+](=O)[O-])c1 |  | 5.52 |
| CCCC(O)(CCC)C(=O)NNc1ccc(C)cc1 |  | 5.23 |
| COc1ccc(O)c(C(=O)CC(=O)c2ccc(F)cc2)c1 | 17.2 µM (inactive) |  |
| Oc1ccccc1Nc1nc(NCC2CCCO2)c2ccccc2n1 (stereo unspecified) | 30.7 µM (inactive) |  |
| COc1ccccc1C(=O)OCC(=O)Nc1ccc(Cl)cn1 | 16.2 µM (inactive) |  |
| Cc1ccc2nc(NC(=O)c3ccccn3)sc2c1 |  | 6.20 |
| COc1cc(OC)cc(OC(=O)c2ccc3c(=O)n4c(nc3c2)CCC4)c1 |  | 5.31 |
| CN1CCN(Cc2cc(C(C)(C)C)c(O)c(C(C)(C)C)c2)CC1 | 11.8 µM (inactive) |  |
